Measured values as given in the supplement of paper PMC10307832.

What was measured:
Experiment in all cases: relative viability (nuclei count vs DMSO), 5 days (fraction); higher = more cells survive
Trametinib + Tozasertib = compound: CC(=O)Nc1cccc(-n2c(=O)n(C3CC3)c(=O)c3c(Nc4ccc(I)cc4F)n(C)c(=O)c(C)c32)c1 [Trametinib] + Cc1cc(Nc2cc(N3CCN(C)CC3)nc(Sc3ccc(NC(=O)C4CC4)cc3)n2)n[nH]1 [Tozasertib] (partner 0.1 µM)
Method in brief: (§1)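 One day after seeding in 1536-well plates, lung cancer cell lines were dosed by pin tool. Dosing was either single-drug or a fixed anchor-drug dose plus five library-drug doses (not always all listed) in √10 steps. After 5 days, nuclei were stained in one fix-and-stain step and counted on 4× images, and relative viability is the nuclei count of treated wells over that of vehicle wells, given as the median of duplicate plates.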

[1] = compound: CN1C=C(C2=CC=CC=C21)/C=C\3/C4=C(C=CC=N4)NC3=O + COc1cc2c(Oc3ccc(NC(=O)C4(C(=O)Nc5ccc(F)cc5)CC4)cc3F)ccnc2cc1OCCCN1CCOCC1 [Foretinib] (partner 0.25 µM)
Method in brief: as §1

[2] = compound: CN1C=C(C2=CC=CC=C21)/C=C\3/C4=C(C=CC=N4)NC3=O + COc1cccc2cc(-c3nc([C@H]4CC[C@H](C(=O)O)CC4)n4ncnc(N)c34)[nH]c12 [OSI-027] (partner 0.5 µM)
Method in brief: as §1

[3] = compound: CN1C=C(C2=CC=CC=C21)/C=C\3/C4=C(C=CC=N4)NC3=O + NC(=O)Nc1cc(-c2cccc(F)c2)sc1C(=O)N[C@H]1CCCNC1 [AZD7762] (partner 0.2 µM)
Method in brief: as §1

Cell Line | relative viability (Trametinib + Tozasertib; first compound 0.0025 µM) | relative viability (Trametinib + Tozasertib; first compound 0.007906 µM) | relative viability (Trametinib + Tozasertib; first compound 0.025 µM) | relative viability (Trametinib + Tozasertib; first compound 0.07906 µM) | relative viability (Trametinib + Tozasertib; first compound 0.25 µM) | relative viability ([1]; first compound 0.02 µM) | relative viability ([1]; first compound 0.06325 µM) | relative viability ([1]; first compound 0.2 µM) | relative viability ([1]; first compound 0.6325 µM) | relative viability ([1]; first compound 2 µM) | relative viability ([2]; first compound 0.02 µM) | relative viability ([2]; first compound 0.06325 µM) | relative viability ([2]; first compound 0.2 µM) | relative viability ([2]; first compound 0.6325 µM) | relative viability ([2]; first compound 2 µM) | relative viability ([3]; first compound 0.02 µM) | relative viability ([3]; first compound 0.06325 µM) | relative viability ([3]; first compound 0.2 µM) | relative viability ([3]; first compound 0.6325 µM) | relative viability ([3]; first compound 2 µM)
LXF-289 | 0.198 | 0.174 | 0.208 | 0.181 | 0.143 | 0.943 | 0.957 | 1.04 | 1.05 | 0.977 | 0.857 | 0.763 | 0.715 | 0.731 | 0.745 | 1.14 | 1.16 | 0.975 | 1.21 | 1.1
NCI-H358 | 0.112 | 0.107 | 0.0799 | 0.0885 | 0.0721 | 0.693 | 0.622 | 0.815 | 0.637 | 0.687 | 0.756 | 0.67 | 0.768 | 0.851 | 0.689 | 0.531 | 0.494 | 0.338 | 0.488 | 0.548
NCI-H1993 | 0.539 | 0.498 | 0.568 | 0.558 | 0.459 | 0.665 | 0.739 | 0.72 | 0.788 | 0.688 | 0.454 | 0.515 | 0.587 | 0.571 | 0.577 | 0.704 | 0.666 | 0.671 | 0.698 | 0.626
NCI-H727 | 0.353 | 0.337 | 0.287 | 0.231 | 0.279 | 0.7 | 0.664 | 0.878 | 0.817 | 0.665 | 0.57 | 0.553 | 0.408 | 0.657 | 0.58 | 0.575 | 0.563 | 0.405 | 0.591 | 0.511
LOU-NH91 | 0.639 | 0.609 | 0.592 | 0.548 | 0.399 | 0.904 | 0.915 | 0.835 | 0.925 | 0.9 | 0.728 | 0.688 | 0.696 | 0.63 | 0.7 | 0.684 | 0.641 | 0.402 | 0.664 | 0.764
NCI-H1975 | 0.716 | 0.703 | 0.478 | 0.338 | 0.29 | 0.87 | 0.918 | 0.83 | 0.697 | 0.837 | 0.698 | 0.739 | 0.828 | 0.646 | 0.449 | 0.893 | 0.811 | 0.62 | 0.602 | 0.542
PC-3 [JPC-3] | 0.864 | 0.742 | 0.795 | 0.629 | 0.563 | 1.06 | 1.02 | 0.987 | 0.973 | 1.05 | 0.698 | 0.487 | 0.747 | 0.703 | 0.694 | 0.811 | 0.801 | 0.752 | 0.819 | 0.701
NCI-H2126 | 0.784 | 0.694 | 0.523 | 0.653 | 0.576 | 1.13 | 1.12 | 1.22 | 0.867 | 1.11 | 0.605 | 0.657 | 0.6 | 0.697 | 0.612 | 1.01 | 0.899 | 0.864 | 1 | 1
LU99A | 0.234 | 0.272 | 0.232 | 0.244 | 0.232 | 0.637 | 0.699 | 0.759 | 0.845 | 0.835 | 0.298 | 0.303 | 0.282 | 0.255 | 0.299 | 0.372 | 0.435 | 0.345 | 0.331 | 0.377
NCI-H23 | 0.339 | 0.211 | 0.283 | 0.248 | 0.213 | 0.982 | 0.977 | 1.03 | 1.03 | 1.07 | 0.497 | 0.555 | 0.459 | 0.538 | 0.517 | 0.264 | 0.232 | 0.167 | 0.252 | 0.189
PC-14 | 0.508 | 0.527 | 0.46 | 0.364 | 0.156 | 0.993 | 0.975 | 1.04 | 0.959 | 1.01 | 0.95 | 0.819 | 0.751 | 0.84 | 0.785 | 0.254 | 0.307 | 0.19 | 0.306 | 0.264
A-427 | 0.217 | 0.159 | 0.158 | 0.166 | 0.173 | 1.18 | 1.21 | – | 0.958 | 1.1 | 0.575 | 0.445 | – | 0.549 | 0.416 | 0.782 | 0.753 | – | 0.729 | 0.802
NCI-H596 | 0.867 | 0.733 | 0.602 | 0.784 | 0.464 | 0.963 | 0.89 | 0.871 | 0.742 | 0.855 | 0.656 | 0.764 | 0.566 | 0.692 | 0.633 | 1 | 1.04 | 0.92 | 1 | 1.21
RERF-LC-KJ | 0.493 | 0.545 | 0.539 | 0.509 | 0.387 | 0.924 | 0.938 | 0.867 | 0.859 | 0.779 | 0.551 | 0.574 | 0.493 | 0.554 | 0.545 | 1.03 | 0.96 | 0.805 | 1.01 | 0.928
NCI-H647 | 0.188 | 0.216 | 0.261 | 0.216 | 0.136 | 1.24 | 1.24 | 1.04 | 1.17 | 1.01 | 0.719 | 0.616 | 0.478 | 0.655 | 0.557 | 0.348 | 0.418 | 0.0952 | 0.304 | 0.378
NCI-H1734 | 0.255 | 0.243 | 0.216 | 0.203 | 0.205 | 0.928 | 0.875 | – | 0.904 | 1.03 | 0.581 | 0.631 | – | 0.68 | 0.565 | 0.521 | 0.537 | – | 0.546 | 0.559
